Values of other authors, collected in US20130344444A1, “PROCESS FOR MAKING LITHOGRAPHIC PRINTING PLATE” (FUJIFILM Corporation, priority 2011, published 2013).

Row | solubility in water | solubility in water (in words) | SMILES
1 | 2.7 g/100 mL of water | – | OCCOc1ccccc1 [Ethyleneglycol monophenyl ether, reference compound]
2 | 4.4 g/100 mL of water | – | CCCCOCC(C)O (stereo not drawn) [Propylene glycol mono-n-butyl ether]

Further lines, the molecule ahead of its results:

Row | SMILES | solubility in water | solubility in water (in words)
3 | OCc1ccccc1 [Benzyl alcohol, reference compound] | 4.0 g/100 mL of water | –
4 | CCCCC(CC)COCCOCCO (stereo not drawn) [Diethylene glycol mono-2-ethylhexyl ether] | 0.3 g/100 mL of water | –
5 | CCCCCCOCCO [Ethylene glycol mono-n-hexyl ether] | 1.0 g/100 mL of water | –
6 | CC(C)(C)OCCO [Ethylene glycol mono-t-butyl ether] | – | mutually mixing
